Assay results as given in patent US5726159A, “Antithrombotic agents” (Eli Lilly and Company, priority 1995, dated 1998).
Where a name gives a salt, the structure may show the parent alone.

Assays:
Assay type in all cases: biochemical
[1] = test system: Human plasma; experiment: Human plasma anticoagulation, prothrombin time (PT); conditions: concentration required to double the clotting time
Procedure: (§1) Dog plasma and rat plasma is obtained from conscious mixed-breed hounds (either sex, Hazelton-LRE, Kalamazoo, Mich., U.S.A.) or from anesthetized male Sprague-Dawley rats (Harlan Sprague-Dawley, Inc., Indianapolis, Ind., U.S.A.) by venipuncture into 3.8 percent citrate. Fibrinogen is prepared from in-date ACD human blood as the fraction I-2 according to previous procedures and specifications. […] Human fibrinogen is also purchased as 98 percent pure/plasmin free from American Diagnostica, Greenwich, Conn. Coagulation reagents ACTIN, Thromboplastin, and Human plasma are from Baxter Healthcare Corp., Dade Division, Miami, Fla. Bovine thrombin from Parke-Davis ([…], Mich.) is used for coagulation assays in plasma.
(§2) Coagulation assay procedures are as previously described. […] A CoAScreener coagulation instrument (American LABor, Inc.) is used for all coagulation assay measurements. The prothrombin time (PT) is measured by adding 0.05 mL saline and 0.05 mL Thromboplastin-C reagent to 0.05 mL test plasma. The activated partial thromboplastin time (APTT) is measured by incubation of 0.05 mL test plasma with 0.05 mL Actin reagent for 120 seconds followed by 0.05 mL CaCl2 (0.02M). The thrombin time (TT) is measured by adding 0.05 mL saline and 0.05 mL thrombin (10 NIH units/mL) to 0.05 mL test plasma. The compounds of Formula I are added to human or animal plasma over a wide range of concentrations to determine prolongation effects on the APTT, PT, and TT assays. Linear extrapolations are performed to estimate the concentrations required to double the clotting time for each assay.

[2] = test system: Human plasma; experiment: Human plasma anticoagulation, thrombin time (TT); conditions: concentration required to double the clotting time
Procedure: as §1, §2

[3] = target: T1, t-PA (Homo sapiens, UniProt P00750); experiment: Kass for t-PA, chromogenic substrate
T1 construct: purchased American Diagnostica, Greenwich, Conn
T1 sequence (P00750 36-562): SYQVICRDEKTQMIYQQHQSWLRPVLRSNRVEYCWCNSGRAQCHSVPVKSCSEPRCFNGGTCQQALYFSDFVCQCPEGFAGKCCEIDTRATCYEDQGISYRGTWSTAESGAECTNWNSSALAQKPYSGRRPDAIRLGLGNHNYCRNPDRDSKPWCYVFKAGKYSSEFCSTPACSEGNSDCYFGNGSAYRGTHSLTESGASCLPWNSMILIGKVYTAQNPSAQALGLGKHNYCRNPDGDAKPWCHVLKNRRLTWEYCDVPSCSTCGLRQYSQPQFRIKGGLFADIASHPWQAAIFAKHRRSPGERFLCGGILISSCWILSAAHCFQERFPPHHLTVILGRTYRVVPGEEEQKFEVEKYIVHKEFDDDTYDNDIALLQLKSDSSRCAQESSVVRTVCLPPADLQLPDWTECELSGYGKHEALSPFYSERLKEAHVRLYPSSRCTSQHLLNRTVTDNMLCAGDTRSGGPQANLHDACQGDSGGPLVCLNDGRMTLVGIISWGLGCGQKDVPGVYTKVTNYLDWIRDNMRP
Procedure: (§3) By substantially following the procedures described above for human thrombin, and using other human blood coagulation system serine proteases and proteases of the fibrinolytic system with the appropriate chromogenic substrates, identified below, selectivity of the compounds of the present invention with respect to the coagulation factor serine proteases and with respect to the fibrinolytic system serine proteases are evaluated as well as their substantial lack of interference with serine proteases of the fibrinolytic system. […] This would be important to the therapeutic use of such agents as an adjunct to streptokinase, t-PA or urokinase thrombolytic therapy and to the use of such agents as an endogenous fibrinolysis-sparing (with respect to t-PA and urokinase) antithrombotic agent. In addition to the lack of interference with the amidase activity of the fibrinolytic proteases, such fibrinolytic system sparing can be studied by the use of human plasma clots and their lysis by the respective fibrinolytic plasminogen activators.

[4] = target: T2, Bovine trypsin (Bos taurus, UniProt P00760); experiment: Kass for trypsin, chromogenic substrate
T2 construct: Bovine trypsin is purchased from Worthington Biochemicals, Freehold, N.J; purchased Worthington Biochemicals, Freehold, N.J
T2 sequence (P00760 24-246): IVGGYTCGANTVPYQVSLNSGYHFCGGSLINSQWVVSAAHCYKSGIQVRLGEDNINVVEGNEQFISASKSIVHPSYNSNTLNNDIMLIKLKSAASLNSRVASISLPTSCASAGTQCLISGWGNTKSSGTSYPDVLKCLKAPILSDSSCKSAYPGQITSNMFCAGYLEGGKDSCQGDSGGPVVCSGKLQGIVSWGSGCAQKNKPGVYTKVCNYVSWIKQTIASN
Procedure: as §3
Chromogenic substrates: N-Benzoyl-Ile-Glu-Gly-Arg-p-nitroanilide (for factor Xa); N-Cbz-D-Arg-Gly-Arg-p-nitroanilide (for factor IXa assay as the factor Xa substrate); Pyroglutamyl-Pro-Arg-p-nitroanilide (for Factor XIa and for aPC); H-D-Pro-Phe-Arg-p-nitroanilide (for factor XIIa); and Pyroglutamyl-Gly-Arg-p-nitroanilide (for urokinase); are purchased from KabiVitrnm, Stockholm, Sweden, or from Midwest Biotech, Fishers, Ind. Bovine trypsin is purchased from Worthington Biochemicals, Freehold, N.J., and human plasma kallikrein from Kabi Vitrum, Stockholm, Sweden. Chromogenic substrate H-D-Pro-Phe-Arg-p-nitroanilide for plasma kallikrein is purchased from Kabi Vitrum, Stockholm, Sweden. N-Benzoyl-Phe-Val-Arg-p-nitroanilide, the substrate for human thrombin and for trypsin, is synthesized according to procedures described above for the compounds of the present invention, using known methods of peptide coupling from commercially available reactants or purchased from Midwest Biotech, Fishers, Ind.

[5] = test system: Human plasma; experiment: Human plasma anticoagulation, activated partial thromboplastin time (APTT); conditions: concentration required to double the clotting time
Procedure: as §1, §2

## N=C(N)c1ccc(CNC(=O)[C@@H]2CCCN2C(=O)[C@H](N)CC2CCCCC2)cc1 [Example 51, D-Cha-Pro-p-NHCH2 C6 H4 C(NH)NH2.2HCl]
[1]
  2x Clotting time PT: 110 ng/mL
[2]
  2x Clotting time TT: 2 ng/mL
[3]
  Kass t-PA: 0.01 × 10^6 (L/mole)
[4]
  Kass Trypsin: 27. × 10^6 (L/mole)
[5]
  2x Clotting time APTT: 48 ng/mL

## N=C(N)NCCCCCNC(=O)[C@@H]1CCCN1C(=O)[C@H](N)Cc1ccccc1 [Example 6, D-Phe-Pro-NH(CH2)5 NHC(NH)NH2.HCl]
[2]
  2x Clotting time TT: 390 ng/mL
[3]
  Kass t-PA: < 0.001

## N=C(N)c1ccc(CNC(=O)[C@@H]2CCCN2C(=O)[C@@H](CC2CCCCC2)NCC(=O)O)cc1 [Example 48, HOOCCH2 -D-Cha-Pro-p-NHCH2 C6 H4 C(NH)NH2.HCl]
[1]
  2x Clotting time PT: 59 ng/mL
[2]
  2x Clotting time TT: 2. ng/mL
[4]
  Kass Trypsin: 250. × 10^6 (L/mole)
[5]
  2x Clotting time APTT: 33 ng/mL

## N=C(N)c1ccc(CNC(=O)[C@@H]2C[C@@H]3CCCC[C@@H]3N2C(=O)[C@H]2C[C@H]3CCCC[C@H]3CN2)cc1 (relative stereo) [Example 43, D-3-Piq-cis-Ohi-p-NHCH2 C6 H4 C(NH)NH2.2HCl]
[1]
  2x Clotting time PT: 930 ng/mL
[2]
  2x Clotting time TT: 280 ng/mL
[3]
  Kass t-PA: 0.01 × 10^6 (L/mole)
[4]
  Kass Trypsin: 100. × 10^6 (L/mole)
[5]
  2x Clotting time APTT: 1,100 ng/mL

## HOOCCH2 -D-Phe-Pro-p-NHCH2 C6 H4 C(NH)NH2.HCl [Example 46]
[1]
  2x Clotting time PT: 77 ng/mL
[2]
  2x Clotting time TT: 2. ng/mL
[3]
  Kass t-PA: 0.01
[4]
  Kass Trypsin: 48.
[5]
  2x Clotting time APTT: 67 ng/mL

## CCS(=O)(=O)N[C@H](Cc1ccccc1)C(=O)N1CCC[C@H]1C(=O)NCc1ccc(NC(=N)N)cc1 [Example 34, EtSO2 -D-Phe-Pro-p-NHCH2 C6 H4 NHC(NH)NH2.HCl]
[1]
  2x Clotting time PT: 5,500 ng/mL
[2]
  2x Clotting time TT: 530 ng/mL
[3]
  Kass t-PA: 0.01 × 10^6 (L/mole)
[5]
  2x Clotting time APTT: 4,900 ng/mL

## CCS(=O)(=O)N[C@H](CC1CCCCC1)C(=O)N1CCC[C@H]1C(=O)NCc1ccc(C(=N)N)cc1 [Example 80, EtSO2 -D-Cha-Pro-4-NHCH2 C6 H4 C(NH)NH2.HCl]
[1]
  2x Clotting time PT: 130 ng/mL
[2]
  2x Clotting time TT: 4 ng/mL
[4]
  Kass Trypsin: 90. × 10^6 (L/mole)
[5]
  2x Clotting time APTT: 40 ng/mL

## N=C(N)c1cccc(CNC(=O)[C@@H]2CCCN2C(=O)[C@@H]2NCC[C@@H]3CCCC[C@@H]32)c1 [Example 25, D-1-Piq-Pro-m-NHCH2 -C6 H4 C(=NH)NH2.HCl]
[1]
  2x Clotting time PT: 40,400 ng/mL
[2]
  2x Clotting time TT: 1,430 ng/mL
[3]
  Kass t-PA: 0.01 × 10^6 (L/mole)
[5]
  2x Clotting time APTT: 34,600 ng/mL

## N=C(N)c1ccc(CCCNC(=O)[C@@H]2CCCN2C(=O)[C@@H]2NCC[C@@H]3CCCC[C@@H]32)cc1 [Example 32, 1-Piq-Pro-p-NHCH2 CH2 CH2 -C6 H4 C(=NH)NH2.HCl]
[1]
  2x Clotting time PT: 47,800 ng/mL
[2]
  2x Clotting time TT: 3,100 ng/mL
[3]
  Kass t-PA: 0.01 × 10^6 (L/mole)
[5]
  2x Clotting time APTT: 28,500 ng/mL

## N=C(N)c1ccc(CNC(=O)[C@@H]2C[C@@H]3CCCC[C@@H]3N2C(=O)[C@@H](CC2CCCCC2)NCC(=O)O)cc1 (relative stereo) [Example 49, HOOCCH2 -D-Cha-cis-Ohi-p-NHCH2 C6 H4 C(NH)NH2.HCl]
[1]
  2x Clotting time PT: 130 ng/mL
[2]
  2x Clotting time TT: 5 ng/mL
[4]
  Kass Trypsin: 940. × 10^6 (L/mole)
[5]
  2x Clotting time APTT: 130 ng/mL

## N=C(N)c1ccc(CNC(=O)[C@@H]2CCCN2C(=O)[C@@H](CC2CCCCC2)NCC(=O)O)c(F)c1 [Example 71, HO2 CCH2 -D-Cha-Pro-4-NHCH2 -3-F-benzamidine.HCl]
[1]
  2x Clotting time PT: 150 ng/mL
[2]
  2x Clotting time TT: 1 ng/mL
[4]
  Kass Trypsin: 240. × 10^6 (L/mole)
[5]
  2x Clotting time APTT: 89 ng/mL

## N=C(N)c1ccc(CNC(=O)[C@@H]2CCCN2C(=O)[C@@H](CCC2CCCCC2)NCC(=O)O)cc1 [Example 88, HOOCCH2 -D-hCha-Pro-p-NHCH2 C6 H4 C(NH)NH2.HCl]
[1]
  2x Clotting time PT: 200 ng/mL
[2]
  2x Clotting time TT: 4 ng/mL
[5]
  2x Clotting time APTT: 100 ng/mL

## O=C(O)CN[C@H](CC1CCCCC1)C(=O)N1CCC[C@H]1C(=O)NCCCC1=CCNCC1 [Example 60, HO2 CCH2 -D-Cha-Pro-4-NHCH2 CH2 CH2 -3,4-dehydro-piperidine.HCl]
[1]
  2x Clotting time PT: 77,700 ng/mL
[2]
  2x Clotting time TT: 3,200 ng/mL
[5]
  2x Clotting time APTT: 22,200 ng/mL

## Nc1cc(CCNC(=O)[C@@H]2CCCN2C(=O)[C@@H](CC2CCCCC2)NCC(=O)O)ccn1 [Example 76, HO2 CCH2 -D-Cha-Pro-4-NHCH2 CH2 -2-aminopyridine.HCl]
[1]
  2x Clotting time PT: 560 ng/mL
[2]
  2x Clotting time TT: 29 ng/mL
[5]
  2x Clotting time APTT: 490 ng/mL

## CCS(=O)(=O)N[C@H](Cc1ccccc1)C(=O)N1[C@H](C(=O)NCc2ccc(C(=N)N)cc2)C[C@@H]2CCCC[C@@H]21 (relative stereo) [Example 45, EtSO2 -Phe-cis-Ohi-p-NHCH2 C6 H4 C(NH)NH2.HCl]
[1]
  2x Clotting time PT: 330 ng/mL
[2]
  2x Clotting time TT: 8 ng/mL
[4]
  Kass Trypsin: 110. × 10^6 (L/mole)
[5]
  2x Clotting time APTT: 200 ng/mL

## N=C(N)c1ccc(CNC(=O)[C@@H]2CCCN2C(=O)[C@@H](CC2CCCCC2)NCC(=O)O)nc1 [Example 66, HO2 CCH2 -D-Cha-Pro-2-NHCH2 -5-amidinopyridine.HCl]
[1]
  2x Clotting time PT: 270 ng/mL
[2]
  2x Clotting time TT: 7.9 ng/mL
[5]
  2x Clotting time APTT: 180 ng/mL

## N=C(N)c1ccc(CNC(=O)[C@@H]2CCCN2C(=O)[C@H](NCC(=O)O)C2CCCCC2)cc1 [Example 86, HOOCCH2 -D-Chg-Pro-p-NHCH2 C6 H4 C(NH)NH2.HCl]
[1]
  2x Clotting time PT: 180 ng/mL
[2]
  2x Clotting time TT: 4 ng/mL
[5]
  2x Clotting time APTT: 81 ng/mL

## N=C(N)Nc1ccc(CCNC(=O)[C@@H]2CCCN2C(=O)[C@@H]2NCC[C@@H]3CCCC[C@@H]32)cc1 [Example 39, D-1-Piq-Pro-p-NHCH2 CH2 C6 H4 NHC(NH)NH2.2HCl]
[1]
  2x Clotting time PT: 78,600 ng/mL
[2]
  2x Clotting time TT: 5,300 ng/mL
[5]
  2x Clotting time APTT: 69,200 ng/mL

## NCC1CCC(CNC(=O)[C@@H]2CCCN2C(=O)[C@@H](CC2CCCCC2)NCC(=O)O)CC1 (stereo partly drawn) [Example 79, HO2 CCH2 -D-Cha-Pro-4-NHCH2 C6 H10 CH2 NH2.HCl]
[1]
  2x Clotting time PT: 2,400 ng/mL
[2]
  2x Clotting time TT: 140 ng/mL
[5]
  2x Clotting time APTT: 1,700 ng/mL
